The record followed here is patent publication US20130029928A1 (priority 2010, published 2013).

For one experiment, the system named is HPAFII. The experiment in a line: ATP depletion cytotoxicity assay 48 hr. Format: cell-based, human.
The subject of experiment [1] is Panc-1 (pancreatic tumour) cells. The experiment can be described thus: Western blot of ER stress-regulated proteins in Panc-1 cells. The experiment is classed as cell-based, human. The conditions noted are these: 500 μM, 4 h to 4 days. On the procedure:
Western blots were performed on the protein extracts (equivalent protein concentrations were loaded onto the gels). The antibodies used were for known ER stress regulated protein Bip/GRP78, CHOP/DDIT3, IRE1alpha, TRB3 (Tribbles3), cleaved PARP (marker of apoptosis), and tubulin (loading control) (see FIG. 71).
A general note: Immunoblotting shows a protein as a band on a membrane.

SMILES strings stand for the structures. pIC50: −log10 of the molar value. Where “and” joins values, the source holds several entries; their conditions need not be identical. Equal values may be shown once. Read-outs that look alike come from different tables or passages of the source.

Description for HPAFII: Following exposure to Test Items, the CellTitre-Glo Luminescent Cell Viability Assay to measure ATP content was performed according to the manufacturer's detailed instructions (Promega Corporation, Technical Bulletin No. 288, and Cell notes, Issue 10, 2004).
Cells were plated at the optimal plating density for that cell line in 96-well plates and allowed to attach overnight. […] Cells were exposed to these compounds in Roswell Park Memorial Institute (RPMI) medium containing 10% Foetal Calf Serum (FCS) and 2 mM Glutamine at 37° C. and 5% CO2 for 48 hours. There were 3 replicates for each test item concentration.
Following exposure to Test Items, the CellTitre-Glo Luminescent Cell Viability Assay to measure ATP content will be performed according to the manufacturer's detailed instructions (Promega Corporation, Technical Bulletin No. 288, and Cell notes, Issue 10, 2004).

What is called pIC50 is the negative decadic logarithm of the IC50, by convention in mol/L. With `O=C(O)C(F)(F)C(F)(F)C(F)(F)C(F)(F)C(F)(F)C(F)(F)C(F)(F)F` [CXR1002], the pIC50 is less than 3.00 in the experiment on HPAFII (Homo sapiens, HPAF-II, 48 h, read-out: IC50 1-4 (independent replicates), ATP depletion, 48 hrs, HPAFII); less than 3.00 in the experiment with HPAFII (Homo sapiens, HPAF-II, 48 h, read-out: IC50 Mean, ATP depletion, 48 hrs, HPAFII); < 3.00 and 3.12 with HPAFII (read-out: IC50 1-4 (independent replicates), ATP depletion, 48 hrs, HPAFII). In addition, the “expression of ER stress-regulated proteins” value in experiment [1] is “altered expression of ER stress-regulated proteins”.
